These are literature values, as cited in patent US10533225B2, “Methods and systems for monitoring, diagnosing, and treating chronic obstructive pulmonary disease” (Trustees of Boston University, priority 2012, dated 2020).

One series has as its system PI3K pathway activation. Conditions: smokers with airway epithelial cell dysplasia.
The subject of series [1] is ER stress markers and airspace. Conditions: mice, administration.

On to `O[C@H]1[C@H](O)[C@@H](O)[C@H](O)[C@@H](O)[C@H]1O` [myo-inositol], for which the “airway PI3K pathway activation” value in the series with PI3K pathway activation is listed as “reversible”.
On to `C=CC=O` [acrolein], for which, in series [1], the ER stress markers entry was “increase in ER stress markers” and the airspace change result is listed as “airspace enlargement”.
